Tested on: SIRT1 MEF cells
Assay: PJ34 in SIRT1−/− MEFs
Format: cell-based, mice
Procedure: Cell Culture, Transfection, Adenoviral Infection and Mitochondrial Characterization. HEK293T, MEF and C2C12 cells were cultured in DMEM (4.5 g/l glucose, 10% FCS). PARP-1^+/+ and PARP-1^−/− MEFs were prepared as described in (Menissier-de Murcia et al., 1997). SIRT1 and MEFs were kindly provided by Fred Alt (Chea et al., 2005). SIRT3 MER were established according to standard techniques from conditional SERT3^−/− mice. […] Mitochondrial charge determination was performed as described (Bai et al., 2001) and DNA strand breaks were quantified by TUNEL assays according to the manufacturer's instructions (Millipore).
Immunoprecipitation, SDS-PAGE, Western Blotting. […] Reactions were developed by enhanced chemiluminescence (Amersham, Little Chalfont, UK), PGC-1α, FOXO1 and Ndufa9 acetylation levels were analyzed by immunoprecipitation from cellular or nuclear lysates of tissues with anti-PGC-1α (Millipore), anti-FOXO1 (Cell Signaling, Danvers, Mass., USA) and anti-Ndufa9 (Abcam) antibody followed by Western blot using an acetyl-lysine antibody (Cell Signaling) that was normalized to total PGC-1a/FOXO1/Ndufa9 levels (Lagouge et al., 2006; Rodgers et al., 2005). […] All blots were quantified by densitometry using ImageJ software. […]

Q: Which results are given for `CN(C)CC(=O)Nc1ccc2[nH]c(=O)c3ccccc3c2c1` [PJ34]?
A: mitochondrial gene expression (SIRT1 MEF cells): largely blunted; PGC-1α acetylation levels (SIRT1−/− MEFs): totally unable to decrease PGC-1α acetylation levels

— patent US10709724B2, “Methods of treating mitochondrial dysfunction” (Ecole Polytechnique Federale de Lausanne (EPFL), priority 2011, dated 2020)
